From patent publication US8318731B2, “Pyrrolopyrimidines” (Janssen Pharmaceutica NV, priority 2007, dated 2012) come the findings set out here.

One test addresses T1, PLK4 (h) (Homo sapiens, UniProt O00444).
T1 sequence (O00444 1-970): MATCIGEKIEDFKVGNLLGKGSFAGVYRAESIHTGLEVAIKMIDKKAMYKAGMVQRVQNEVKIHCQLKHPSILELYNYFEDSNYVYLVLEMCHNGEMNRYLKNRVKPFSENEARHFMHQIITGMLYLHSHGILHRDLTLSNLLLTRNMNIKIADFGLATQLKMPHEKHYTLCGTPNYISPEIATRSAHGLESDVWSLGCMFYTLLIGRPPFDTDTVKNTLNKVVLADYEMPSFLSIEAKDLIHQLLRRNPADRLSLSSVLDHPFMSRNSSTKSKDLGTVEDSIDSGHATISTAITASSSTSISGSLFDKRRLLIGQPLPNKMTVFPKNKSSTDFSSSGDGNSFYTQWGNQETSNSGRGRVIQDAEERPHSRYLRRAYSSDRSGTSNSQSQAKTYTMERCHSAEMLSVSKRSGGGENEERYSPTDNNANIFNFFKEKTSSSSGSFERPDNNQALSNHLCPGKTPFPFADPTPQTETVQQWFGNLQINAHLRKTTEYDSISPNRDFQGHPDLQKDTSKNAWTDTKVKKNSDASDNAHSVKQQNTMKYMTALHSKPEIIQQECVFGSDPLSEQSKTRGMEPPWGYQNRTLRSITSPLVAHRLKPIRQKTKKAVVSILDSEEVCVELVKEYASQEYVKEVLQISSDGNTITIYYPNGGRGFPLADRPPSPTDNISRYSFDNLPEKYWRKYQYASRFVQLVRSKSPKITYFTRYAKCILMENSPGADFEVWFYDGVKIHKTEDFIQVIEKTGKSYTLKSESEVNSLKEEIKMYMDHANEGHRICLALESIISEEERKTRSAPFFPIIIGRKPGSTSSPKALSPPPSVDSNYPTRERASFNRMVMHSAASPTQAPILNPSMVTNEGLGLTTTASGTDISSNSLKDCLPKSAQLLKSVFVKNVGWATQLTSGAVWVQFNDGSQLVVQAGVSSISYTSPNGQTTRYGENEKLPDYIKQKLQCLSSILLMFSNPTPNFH
The experiment in a line: PLK-4 human kinase scintillation proximity assay (SPA). The format is biochemical. The note with it: 1 μM ATP, 60 minutes at r.t., read-out: PLK4 pIC50 (converted). The method in brief:
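Human PLK4 (19 μg/ml) reacted with 10 μM biotinylated peptide, 1 μM ATP plus 2 nM [γ-33P]ATP in HEPES pH 8.0 with MgCl2, NaCl, NaF and DTT for 60 min at r.t. After an EDTA stop, phosphorylated substrate was captured on streptavidin PVT SPA beads and scintillation imaged.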
In general terms: Scintillation proximity formats need no separation of bound from free tracer.

In a further test the test system is HCT-116. The test can be described thus: Cellular proliferation assay (Alamar blue), HCT-116. The following applies: Homo sapiens; HCT-116 cells; 10% FCS; 72 h with compound; Alamar blue 4 h; read-out: pIC50 HCT-116 (converted). The format is cell-based. In a few lines: (§1)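 10% FCS, 37° C., 5% CO2; seed, 24 h no compound; 72 h compound; Alamar blue (resazurin 9 μg/ml, ferro-/ferricyanide 90 μM each) 4 h HCT-116, 6 h U87-MG, 24 h PC3/A2780; fluorescence 544/590 nm; normalised to controls.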
In general terms: Alamar Blue is a resazurin reagent that responds to reducing activity.

In another test the test system is H1299. The experiment in a line: Cellular proliferation assay (Alamar blue), H1299. The class given is cell-based. The note with it: Homo sapiens, NCI-H1299, H1299 cells; 10% FCS; 72 h with compound; Alamar blue 4 h; read-out: pIC50 H1299 (converted). In a few lines: (§2)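 Viable cell number is determined by Alamar blue conversion after cells are treated with compound for 72 hours, following 24 hours of growth without compound in 10% FCS. The effect is calculated against control cells.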

The test system of a further test is U87-MG. The test can be described thus: Cellular proliferation assay (Alamar blue), U87-MG. The class given is cell-based. The note with it: Homo sapiens, U-87 MG; U87-MG cells; 10% FCS; 72 h with compound; Alamar blue 6 h; read-out: pIC50 U87MG (converted). The protocol: Cellular proliferation of these compounds was tested on a panel of different cell lines in the presence of 10% FCS serum (37° C. and 5% (v/v) CO2). In a first step these cells were seeded and incubated for 24 hours in the absence of compound. In the second step the cells were incubated for 72 hours with the compounds to be tested for 72 hours. The viable cell number was finally assessed in a standard Alamar blue cell viability assay.
The viable cell number was assessed by incubation for either 4 h (HCT-116, H1299) 6 h (U87-MG) or 24 h (A2780, PC3, MDA-MB-231) with Alamar blue (Resazurin 9 μg/ml, K-Ferrocyanide 90 μM, K-Ferricyanide 90 μM) and the converted fluorescent product was quantified on a fluorescent plate readed (544 nm/590 nm). Effect of the compounds is calculated as of on control cells.

The subject of another test is A2780. The test can be described thus: Cellular proliferation assay (Alamar blue), A2780. The format is cell-based. The note with it: Homo sapiens, A2780, A2780 cells; 10% FCS; 72 h with compound; Alamar blue 24 h; read-out: pIC50 A2780 (converted). The method in brief:
as §1

Another test has as its system PC3. The test can be described thus: Cellular proliferation assay (Alamar blue), PC3. The note with it: Homo sapiens, PC-3, PC-3 cells; 10% FCS; 72 h with compound; Alamar blue 24 h; read-out: pIC50 PC-3 (converted). The format is cell-based. The method in brief:
as §1

The next test concerns MDA-MB-231. The test can be described thus: Cellular proliferation assay (Alamar blue), MDA-MB-231. The format is cell-based. The following applies: Homo sapiens, MDA-MB-231, MDA-MB-231 cells; 10% FCS; 72 h with compound; Alamar blue 24 h; read-out: pIC50 MDA/MB231 (converted). In a few lines:
as §2

In the case of `COc1ccc2cc1OCCNC(=O)CN(C)Cc1c[nH]c3ncnc(c13)N2` [Compound 22], the IC50 was 1.26 µM on PLK4 (h); 2 µM in the test with HCT-116; 3.16 µM in the test on H1299; 2.51 µM with U87-MG; 2 µM in the test with A2780; 6.31 µM with PC3. Besides, in the test with MDA-MB-231, the IC50 was 10 µM.

`CN1CC(=O)NCCOc2cccc(c2)Nc2ncnc3[nH]cc(c23)C1` [Compound 23]: the IC50 is 1.58 µM at PLK4 (h); 1.26 µM in the test on HCT-116; 1 µM in the test with H1299; 1.58 µM in the test with U87-MG; 1 µM in the test with A2780; 3.16 µM in the test on PC3. Moreover, in the test on MDA-MB-231, the IC50 is 5.01 µM.

As to `CN1CCCN(C)C(=O)Cc2cccc(c2)Nc2ncnc3[nH]cc(c23)C1` [Compound 24], the IC50 on PLK4 (h) is 0.398 µM; in the test with HCT-116, 3.98 µM; with H1299 it was over 10 µM; with U87-MG, 10 µM; in the test with A2780, 5.01 µM; in the test on PC3, 10 µM. Moreover, the IC50 with MDA-MB-231 is over 10 µM.

As for `COc1ccc2cc1OCC(=O)N1CCC[C@H]1CN(C)CCCc1c[nH]c3ncnc(c13)N2` [Compound 27], the IC50 on PLK4 (h) was 6.31 µM; in the test on HCT-116 it was over 10 µM; in the test on H1299 it was over 10 µM; in the test with U87-MG, over 10 µM; in the test with A2780, over 10 µM; in the test on PC3, over 10 µM. The IC50 with MDA-MB-231 was over 10 µM.

For `COc1ccc2cc1OCC(=O)N[C@@H](C)CN(C)CCCc1c[nH]c3ncnc(c13)N2` [Compound 28], the IC50 on PLK4 (h), in the test on HCT-116, with H1299, in the test with U87-MG, with A2780 and in the test with PC3 was over 10 µM throughout. The IC50 in the test on MDA-MB-231 is over 10 µM.

For the compound `COc1ccc2cc1OCC(=O)N1CCCC(CN(C)CCCc3c[nH]c4ncnc(c34)N2)C1` (stereo not drawn) [Compound 29], the IC50 at PLK4 (h), with HCT-116, with H1299, in the test on U87-MG, in the test on A2780 and in the test on PC3 was over 10 µM in each case. In addition, in the test with MDA-MB-231, the IC50 was over 10 µM.

On to `COc1cc2cc(c1OC)CCC(=O)N(C)CCCN(C)Cc1c[nH]c3ncnc(c13)N2` [Compound 30], for which the IC50 at PLK4 (h), in the test with HCT-116, in the test on H1299, in the test with U87-MG, with A2780 and in the test on PC3 was over 10 µM throughout. Moreover, the IC50 in the test with MDA-MB-231 was over 10 µM.

For the compound `CN1CCN(C)C(=O)CCCOc2cccc(c2)Nc2ncnc3[nH]cc(c23)C1` [Compound 31], the IC50 at PLK4 (h) is 0.794 µM; in the test with HCT-116, 6.31 µM; in the test on H1299, over 10 µM; in the test on U87-MG it was over 10 µM; in the test on A2780, 3.98 µM; in the test on PC3, over 10 µM. In the test with MDA-MB-231, the IC50 was over 10 µM.

In the case of `COc1ccc2cc1OCC(=O)NCN(C)CCCc1c[nH]c3ncnc(c13)N2` [Compound 33], the IC50 on PLK4 (h) is 5.01 µM; in the test on HCT-116, over 10 µM; in the test with H1299 it was over 10 µM; in the test on U87-MG, over 10 µM; in the test on A2780 it was over 10 µM; with PC3, over 10 µM. In the test with MDA-MB-231, the IC50 was over 10 µM.

For `COc1ccc2cc1CN(C)CC(=O)N(C)CCCc1c[nH]c3ncnc(c13)N2` [Compound 34], the IC50 on PLK4 (h), in the test with HCT-116, in the test on H1299, in the test on U87-MG, with A2780 and in the test on PC3 was over 10 µM each time. In addition, the IC50 in the test with MDA-MB-231 is over 10 µM.

With `COc1ccc2cc1CN1CCCC(C1)C(=O)N(C)CCCc1c[nH]c3ncnc(c13)N2` (stereo not drawn) [Compound 35], the IC50 at PLK4 (h), in the test with HCT-116, with H1299, in the test on U87-MG, with A2780 and in the test on PC3 was over 10 µM in each case. The IC50 in the test on MDA-MB-231 is over 10 µM.

On to `COCCN1CC(=O)N(C)CCCc2c[nH]c3ncnc(c23)Nc2ccc(OC)c(c2)C1` [Compound 36], for which the IC50 at PLK4 (h), with HCT-116, with H1299, in the test with U87-MG, in the test with A2780 and in the test with PC3 was over 10 µM throughout. In the test with MDA-MB-231, the IC50 was over 10 µM.

For the compound `COc1ccc2cc1CN(C(C)C)CC(=O)N(C)CCCc1c[nH]c3ncnc(c13)N2` [Compound 37], the IC50 at PLK4 (h), with HCT-116, with H1299, in the test with U87-MG, in the test on A2780 and in the test on PC3 was over 10 µM throughout. Also, the IC50 with MDA-MB-231 is over 10 µM.

Regarding `COc1ccc2cc1OCC(=O)N1CCC[C@@H]1CN(C)CCCc1c[nH]c3ncnc(c13)N2` [Compound 38], the IC50 on PLK4 (h), in the test on HCT-116, in the test with H1299, in the test on U87-MG, in the test with A2780 and in the test on PC3 was over 10 µM in each case. For the same compound, the IC50 with MDA-MB-231 is over 10 µM.

`CN1CCN(C)C(=O)CCCOc2cc(ccc2N2CCOCC2)Nc2ncnc3[nH]cc(c23)C1` [Compound 40]: the IC50 at PLK4 (h) is 1.26 µM; with HCT-116 it was over 10 µM; in the test on H1299 it was over 10 µM; in the test with U87-MG it was over 10 µM; in the test on A2780 it was over 10 µM; in the test on PC3 it was over 10 µM. Besides, the IC50 in the test with MDA-MB-231 is over 10 µM.

As for `COc1ccc2cc1OCCCCC(=O)N(C)CCN(C)Cc1c[nH]c3ncnc(c13)N2` [Compound 41], the IC50 is 2.51 µM at PLK4 (h); over 10 µM in the test with HCT-116; over 10 µM with H1299; over 10 µM with U87-MG; over 10 µM in the test with A2780; over 10 µM with PC3. In addition, the IC50 in the test with MDA-MB-231 is over 10 µM.

Consider `CN1CCN(C)C(=O)CCCOc2cc(ccc2Cl)Nc2ncnc3[nH]cc(c23)C1` [Compound 42], for which the IC50 is 0.794 µM at PLK4 (h); over 10 µM with HCT-116; over 10 µM in the test with H1299; over 10 µM in the test on U87-MG; over 10 µM in the test with A2780; over 10 µM in the test on PC3. Further, in the test with MDA-MB-231, the IC50 was over 10 µM.

Regarding `CN1CCCN(C)C(=O)CCCOc2cc(ccc2N2CCOCC2)Nc2ncnc3[nH]cc(c23)C1` [Compound 44], the IC50 on PLK4 (h) was 1.58 µM; with HCT-116 it was over 10 µM; in the test on H1299 it was over 10 µM; in the test on U87-MG, over 10 µM; with A2780, over 10 µM; in the test on PC3 it was over 10 µM. For the same compound, the IC50 with MDA-MB-231 was over 10 µM.
